Experimental data from PMC4137556 (Biochimica et biophysica acta, 2013).
Positions of bridges follow the written chain, without caps; N, C: chain ends. Non-standard residues stand in square brackets, D forms with d. Residues, ends and D or L forms follow the SMILES beside them. pGlu = O=C1CC[C@@H](C(=O)O)N1

What was measured:
[1] = tested on: murine cerebrocortical neuron cells; assay: Effect on neuronal Ca2+ oscillations, peptide alone; assay type: cell-based, mouse; settings: ASPA alone, without veratridine
[2] = molecular target: voltage-gated Na+ (NaV1.2) channel (Homo sapiens, UniProt Q99250); assay: Voltage-gated Na+ channel inhibition/activation; assay type: cell-based; settings: ASPA administered alone, up to micromolar concentrations
[3] = molecular target: voltage-gated Ca2+ (Cav1.2) channel (Homo sapiens, UniProt Q13936); assay: Voltage-gated Ca2+ channel inhibition/activation; assay type: cell-based; settings: ASPA administered alone, up to micromolar concentrations
[4] = tested on: veratridine binding site of the VGSC (neurotoxin site 2)
[5] = tested on: neuraminidase from Arthrobacter ureafaciens; assay: Neuraminidase inhibition; assay type: biochemical; settings: Arthrobacter ureafaciens enzyme; up to 50 μM
[6] = tested on: neuraminidase from Clostridium perfringens; assay type: biochemical
[7] = molecular target: neuraminidase from Vibrio cholera (Vibrio cholerae serotype O1, UniProt P0C6E9); assay: Neuraminidase inhibition; assay type: biochemical; settings: Vibrio cholera enzyme; up to 50 μM
[8] = molecular target: T1, neuraminidase from Micromonospora viridifaciens (Micromonospora viridifaciens, UniProt Q02834); assay: Neuraminidase inhibition; assay type: biochemical; settings: Micromonospora viridifaciens enzyme; up to 50 μM
T1 sequence (Q02834 38-647): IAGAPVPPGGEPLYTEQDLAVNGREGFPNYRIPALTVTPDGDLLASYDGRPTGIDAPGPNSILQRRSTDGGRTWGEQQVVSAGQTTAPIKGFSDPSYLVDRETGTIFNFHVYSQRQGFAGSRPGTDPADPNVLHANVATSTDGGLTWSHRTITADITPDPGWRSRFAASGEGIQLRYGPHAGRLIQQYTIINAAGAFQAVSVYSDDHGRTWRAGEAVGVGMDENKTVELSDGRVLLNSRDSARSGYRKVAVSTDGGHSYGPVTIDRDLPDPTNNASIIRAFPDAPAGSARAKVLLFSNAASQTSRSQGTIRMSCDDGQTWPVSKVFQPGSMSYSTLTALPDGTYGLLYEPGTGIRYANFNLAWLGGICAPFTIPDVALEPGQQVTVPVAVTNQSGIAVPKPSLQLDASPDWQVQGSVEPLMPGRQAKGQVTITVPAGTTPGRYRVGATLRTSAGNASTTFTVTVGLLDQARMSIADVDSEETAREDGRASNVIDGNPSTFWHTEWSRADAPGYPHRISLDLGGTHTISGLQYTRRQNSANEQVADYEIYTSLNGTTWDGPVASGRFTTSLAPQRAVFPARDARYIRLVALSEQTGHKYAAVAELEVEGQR

[9] = tested on: neuraminidase from recombinant influenza A virus H1N1; assay: Neuraminidase inhibition; assay type: biochemical; settings: recombinant influenza A virus H1N1 enzyme; up to 50 μM
proteinase K = proteinase K (Parengyodontium album, UniProt P06873); assay: Proteolytic stability against proteinase K; assay type: in vitro ADME; settings: proteinase K from Tritirachium album; 50 °C, up to 48 h
thermolysin = molecular target: T2, thermolysin (Bacillus thermoproteolyticus, UniProt P00800); assay: Proteolytic stability against thermolysin; assay type: in vitro ADME; settings: thermolysin from Bacillus thermoprotelyticus rokko; 65 °C, up to 12 h
T2 sequence (P00800 233-548): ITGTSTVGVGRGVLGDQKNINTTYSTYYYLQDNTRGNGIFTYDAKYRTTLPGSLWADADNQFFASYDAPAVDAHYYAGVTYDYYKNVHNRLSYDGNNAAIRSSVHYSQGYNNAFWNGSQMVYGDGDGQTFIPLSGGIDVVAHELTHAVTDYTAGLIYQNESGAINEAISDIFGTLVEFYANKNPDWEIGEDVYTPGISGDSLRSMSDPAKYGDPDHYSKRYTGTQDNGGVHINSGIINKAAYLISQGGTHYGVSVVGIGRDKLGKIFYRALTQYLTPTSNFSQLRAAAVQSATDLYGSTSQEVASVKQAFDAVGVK

mice = assay: Toxicity in mice; assay type: in vivo; settings: i.p. 40 μg/g
chicks = assay: Toxicity in chicks; assay type: in vivo; settings: i.c.v. 60 μg/g
bacterial neuraminidases = settings: cited from earlier work

Chain of voltage-gated Ca2+ (Cav1.2) channel (Q13936 whole entry): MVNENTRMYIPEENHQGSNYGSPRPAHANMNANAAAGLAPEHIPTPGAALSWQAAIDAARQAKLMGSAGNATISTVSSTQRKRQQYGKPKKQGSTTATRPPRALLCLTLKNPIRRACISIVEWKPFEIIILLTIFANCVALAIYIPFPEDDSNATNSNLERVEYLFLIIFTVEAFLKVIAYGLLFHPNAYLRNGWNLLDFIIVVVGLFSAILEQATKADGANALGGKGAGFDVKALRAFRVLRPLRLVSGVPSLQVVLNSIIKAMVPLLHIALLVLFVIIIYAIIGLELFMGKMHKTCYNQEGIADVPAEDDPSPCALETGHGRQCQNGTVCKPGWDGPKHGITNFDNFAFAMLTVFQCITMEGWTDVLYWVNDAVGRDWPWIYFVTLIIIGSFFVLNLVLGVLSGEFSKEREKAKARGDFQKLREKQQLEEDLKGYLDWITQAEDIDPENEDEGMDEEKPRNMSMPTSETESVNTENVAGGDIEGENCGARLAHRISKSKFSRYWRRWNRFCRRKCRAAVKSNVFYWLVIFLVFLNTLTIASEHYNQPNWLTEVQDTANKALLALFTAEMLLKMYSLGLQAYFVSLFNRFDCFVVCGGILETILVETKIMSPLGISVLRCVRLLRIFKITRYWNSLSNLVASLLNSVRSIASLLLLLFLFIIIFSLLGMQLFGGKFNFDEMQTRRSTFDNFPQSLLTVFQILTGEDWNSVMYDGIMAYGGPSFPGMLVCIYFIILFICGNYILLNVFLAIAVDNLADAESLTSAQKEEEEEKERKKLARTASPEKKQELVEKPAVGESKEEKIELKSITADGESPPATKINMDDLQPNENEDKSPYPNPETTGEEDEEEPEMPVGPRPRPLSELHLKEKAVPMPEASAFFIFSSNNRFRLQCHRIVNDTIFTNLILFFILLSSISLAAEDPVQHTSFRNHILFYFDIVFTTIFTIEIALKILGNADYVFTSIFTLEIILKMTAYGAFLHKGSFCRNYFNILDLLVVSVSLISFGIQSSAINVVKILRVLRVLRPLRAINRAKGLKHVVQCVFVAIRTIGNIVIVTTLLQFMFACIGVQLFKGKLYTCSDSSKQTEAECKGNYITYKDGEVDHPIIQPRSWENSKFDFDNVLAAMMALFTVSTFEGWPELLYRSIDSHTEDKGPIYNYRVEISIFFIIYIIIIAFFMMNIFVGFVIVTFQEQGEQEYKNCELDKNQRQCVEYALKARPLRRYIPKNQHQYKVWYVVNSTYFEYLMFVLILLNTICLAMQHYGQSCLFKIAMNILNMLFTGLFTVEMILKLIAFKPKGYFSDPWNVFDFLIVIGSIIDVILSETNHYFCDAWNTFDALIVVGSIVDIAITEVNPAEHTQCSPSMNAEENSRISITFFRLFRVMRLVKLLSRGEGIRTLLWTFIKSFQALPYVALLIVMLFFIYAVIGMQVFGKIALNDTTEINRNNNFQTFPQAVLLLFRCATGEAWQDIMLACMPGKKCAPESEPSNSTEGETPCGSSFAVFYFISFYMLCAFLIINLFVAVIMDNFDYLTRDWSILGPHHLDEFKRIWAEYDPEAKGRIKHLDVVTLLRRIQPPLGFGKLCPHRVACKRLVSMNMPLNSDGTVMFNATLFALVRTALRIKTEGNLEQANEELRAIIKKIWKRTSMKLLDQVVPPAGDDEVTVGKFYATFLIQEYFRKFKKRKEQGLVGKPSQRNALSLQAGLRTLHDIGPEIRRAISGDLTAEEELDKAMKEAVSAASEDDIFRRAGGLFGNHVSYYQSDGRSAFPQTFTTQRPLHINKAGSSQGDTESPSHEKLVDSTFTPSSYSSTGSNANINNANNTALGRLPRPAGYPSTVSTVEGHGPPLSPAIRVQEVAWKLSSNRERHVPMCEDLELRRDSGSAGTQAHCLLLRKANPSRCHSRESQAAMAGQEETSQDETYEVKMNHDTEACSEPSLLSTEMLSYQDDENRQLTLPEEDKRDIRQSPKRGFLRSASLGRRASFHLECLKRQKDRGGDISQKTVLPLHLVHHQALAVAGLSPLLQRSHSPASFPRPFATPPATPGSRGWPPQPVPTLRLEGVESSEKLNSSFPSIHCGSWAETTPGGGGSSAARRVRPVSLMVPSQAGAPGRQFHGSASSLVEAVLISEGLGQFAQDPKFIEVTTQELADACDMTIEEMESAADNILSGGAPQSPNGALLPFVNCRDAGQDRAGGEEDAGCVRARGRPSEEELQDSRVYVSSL
Chain of neuraminidase from Vibrio cholera (P0C6E9 25-781): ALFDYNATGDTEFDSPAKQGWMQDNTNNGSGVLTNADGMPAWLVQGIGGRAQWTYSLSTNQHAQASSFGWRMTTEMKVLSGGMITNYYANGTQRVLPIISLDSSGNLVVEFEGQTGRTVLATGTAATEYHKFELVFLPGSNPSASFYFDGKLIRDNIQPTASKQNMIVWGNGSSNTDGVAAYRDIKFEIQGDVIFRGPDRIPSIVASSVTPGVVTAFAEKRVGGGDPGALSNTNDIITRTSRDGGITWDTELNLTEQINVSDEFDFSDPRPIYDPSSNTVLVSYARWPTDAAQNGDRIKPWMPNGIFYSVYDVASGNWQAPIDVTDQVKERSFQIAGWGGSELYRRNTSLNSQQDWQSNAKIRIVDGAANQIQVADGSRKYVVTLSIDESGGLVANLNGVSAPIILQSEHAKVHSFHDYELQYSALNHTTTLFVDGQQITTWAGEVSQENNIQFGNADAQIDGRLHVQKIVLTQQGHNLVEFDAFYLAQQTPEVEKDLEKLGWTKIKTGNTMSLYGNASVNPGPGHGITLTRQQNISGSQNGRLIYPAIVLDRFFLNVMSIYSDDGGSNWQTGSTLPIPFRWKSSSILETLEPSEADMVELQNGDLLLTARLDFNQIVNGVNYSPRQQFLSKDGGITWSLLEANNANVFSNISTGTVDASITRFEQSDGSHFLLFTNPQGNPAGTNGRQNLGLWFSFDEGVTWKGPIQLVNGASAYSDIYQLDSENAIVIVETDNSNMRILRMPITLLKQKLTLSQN
Chain of voltage-gated Na+ (NaV1.2) channel (Q99250 whole entry): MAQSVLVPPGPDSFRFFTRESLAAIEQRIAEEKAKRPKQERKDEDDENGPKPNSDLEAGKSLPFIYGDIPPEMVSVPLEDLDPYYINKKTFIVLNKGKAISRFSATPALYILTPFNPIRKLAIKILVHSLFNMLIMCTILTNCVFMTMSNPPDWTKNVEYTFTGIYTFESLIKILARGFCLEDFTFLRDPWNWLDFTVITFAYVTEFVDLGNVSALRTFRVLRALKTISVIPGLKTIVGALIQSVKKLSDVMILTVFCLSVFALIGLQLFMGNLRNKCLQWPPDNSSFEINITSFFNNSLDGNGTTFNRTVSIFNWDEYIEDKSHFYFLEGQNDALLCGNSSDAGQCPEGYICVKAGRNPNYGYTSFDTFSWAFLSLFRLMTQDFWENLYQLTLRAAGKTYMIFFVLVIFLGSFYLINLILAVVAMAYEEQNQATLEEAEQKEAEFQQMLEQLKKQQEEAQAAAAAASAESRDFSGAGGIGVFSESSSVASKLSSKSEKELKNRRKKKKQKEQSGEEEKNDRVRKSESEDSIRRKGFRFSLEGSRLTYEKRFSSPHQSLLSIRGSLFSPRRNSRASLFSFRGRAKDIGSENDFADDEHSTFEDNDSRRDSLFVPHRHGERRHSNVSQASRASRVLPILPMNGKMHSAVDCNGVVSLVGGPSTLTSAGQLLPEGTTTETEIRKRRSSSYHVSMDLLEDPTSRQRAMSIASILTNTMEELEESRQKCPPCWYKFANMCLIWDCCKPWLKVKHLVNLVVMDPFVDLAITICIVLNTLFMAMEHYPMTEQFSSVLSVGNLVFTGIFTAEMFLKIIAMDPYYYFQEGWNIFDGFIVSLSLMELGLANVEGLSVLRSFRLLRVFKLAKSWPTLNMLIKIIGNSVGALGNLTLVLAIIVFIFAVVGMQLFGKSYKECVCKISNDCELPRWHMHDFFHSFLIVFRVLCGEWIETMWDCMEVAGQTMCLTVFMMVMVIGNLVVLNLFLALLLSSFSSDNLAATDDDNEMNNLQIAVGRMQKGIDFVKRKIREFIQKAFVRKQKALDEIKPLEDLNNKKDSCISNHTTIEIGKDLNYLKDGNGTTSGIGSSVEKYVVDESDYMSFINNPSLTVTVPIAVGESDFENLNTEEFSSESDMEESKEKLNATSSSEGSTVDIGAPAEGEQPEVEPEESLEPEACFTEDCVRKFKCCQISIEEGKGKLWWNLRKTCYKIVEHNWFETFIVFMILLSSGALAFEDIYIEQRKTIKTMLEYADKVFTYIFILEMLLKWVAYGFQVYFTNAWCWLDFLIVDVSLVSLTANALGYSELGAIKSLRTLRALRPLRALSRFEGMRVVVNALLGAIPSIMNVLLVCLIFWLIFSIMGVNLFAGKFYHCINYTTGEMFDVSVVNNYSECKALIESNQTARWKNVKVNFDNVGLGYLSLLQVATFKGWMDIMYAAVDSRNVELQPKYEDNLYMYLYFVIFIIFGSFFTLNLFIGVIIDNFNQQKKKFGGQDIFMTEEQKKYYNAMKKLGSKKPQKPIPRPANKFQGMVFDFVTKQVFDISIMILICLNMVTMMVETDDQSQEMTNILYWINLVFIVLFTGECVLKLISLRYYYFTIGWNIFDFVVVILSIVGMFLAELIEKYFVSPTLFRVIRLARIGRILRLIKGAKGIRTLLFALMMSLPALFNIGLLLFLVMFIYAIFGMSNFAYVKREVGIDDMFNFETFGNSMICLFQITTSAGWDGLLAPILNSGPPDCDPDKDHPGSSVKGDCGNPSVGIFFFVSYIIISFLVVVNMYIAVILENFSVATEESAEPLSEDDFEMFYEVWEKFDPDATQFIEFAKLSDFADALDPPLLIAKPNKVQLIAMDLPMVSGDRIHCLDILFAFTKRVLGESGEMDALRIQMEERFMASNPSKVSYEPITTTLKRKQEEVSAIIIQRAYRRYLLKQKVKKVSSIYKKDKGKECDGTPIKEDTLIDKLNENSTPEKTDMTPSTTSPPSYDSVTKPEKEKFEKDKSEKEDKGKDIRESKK

| Compound | Effect on oscillation frequency or amplitude of neuronal Ca2+ currents [1] | Inhibition or activation of NaV1.2 [2] | Inhibition or activation of Cav1.2 [3] | Allosteric interaction with the veratridine binding site of the VGSC [4] | Neuraminidase inhibition [5] | Neuraminidase inhibition [6] | Neuraminidase inhibition [7] | Neuraminidase inhibition [8] | Neuraminidase inhibition [9] | Proteolytic stability against proteinase K (proteinase K) | Proteolytic stability against thermolysin (thermolysin) | Toxicity or behavior changes (mice) | Toxicity or behavior changes (chicks) | Inhibition of bacterial neuraminidases (bacterial neuraminidases) |
| --- | --- | --- | --- | --- | --- | --- | --- | --- | --- | --- | --- | --- | --- | --- |
| CC[C@H](C)[C@@H]1NC(=O)[C@@H]2CSSC[C@@H]3NC(=O)[C@H](CO)NC(=O)[C@H](CCC(=O)O)NC(=O)CNC(=O)[C@H](CCC(=O)O)NC(=O)[C@H](Cc4ccccc4)NC(=O)[C@H](C)NC(=O)[C@@H](NC(=O)CNC(=O)[C@@H]4CCC(=O)N4)CSSC[C@H](NC(=O)[C@H](CSSC[C@@H](C(=O)N[C@@H](Cc4ccc(O)cc4)C(=O)N[C@@H](Cc4ccc(O)cc4)C(=O)N[C@@H](CC(C)C)C(=O)O)NC(=O)[C@H]([C@@H](C)O)NC(=O)CNC(=O)[C@H](CC(=O)O)NC(=O)[C@@H]4CCCN4C(=O)[C@H](CC(N)=O)NC(=O)CNC(=O)[C@@H]4CCCN4C1=O)NC(=O)[C@@H]1CCCN1C(=O)[C@H](Cc1ccc(O)cc1)NC(=O)[C@H](Cc1ccccc1)NC(=O)[C@H](CCC(N)=O)NC(=O)[C@H](C(C)C)NC(=O)[C@H](CC(N)=O)NC3=O)C(=O)N1CCC[C@H]1C(=O)NCC(=O)N[C@@H](CC(C)C)C(=O)NCC(=O)N[C@@H](CC(C)C)C(=O)N[C@@H]([C@@H](C)O)C(=O)N2 [ASPA, Asteropsin A] ([pGlu]GCAFEGESCNVQFYPCCPGLGLTCIPGNPDGTCYYL-OH; disulfide 3-18, 10-25, 17-34; C-terminus assumed) | did not modify | Neither the inhibition nor the activation | Neither the inhibition nor the activation | not observed | no inhibition | no inhibition | no inhibition | no inhibition | no inhibition | extraordinary proteolytic stability | extraordinary proteolytic stability | no toxicity or behavior changes were observed | no toxicity or behavior changes were observed | – |
| asteropine A [APA] | – | – | – | – | – | – | – | – | – | – | – | – | – | potent competitive inhibitor |
